The source of these data is patent US9029401B2 (The Regents of the University of California, priority 2011, dated 2015).

Like-named read-outs stand apart in the source and are kept apart here. Some results are limits rather than exact numbers.

One assay addresses Raf-1 (Homo sapiens (Human), UniProt P04049). Nature of the assay: In vitro kinase inhibition assay (ADP-Glo), Raf-1. The assay is classed as biochemical. How it is done:
(§1) All measurements included background and control (vehicle only) luminescence readings.
(§2) The kinases Raf-1 and b-Raf (V600E), and their corresponding substrate, MEK1, and Full length recombinant CRAF kinase and its respective substrate, recombinant MEK1, were purchased from US Biological (Swampscott, Mass.). All assays were performed under identical conditions for the Raf isozymes: 10 nM Enzyme, 1 μM MEK1, 10 μM ATP, at 22° C. for 2 hours. […] IC50 values were obtained by determining the change in the ADP production (luminescence signal) at various inhibitor concentrations as compared to the control assay. Individual data sets were performed in duplicate and each IC50 was determined by the average and standard deviation of three separate experiments.
Full length recombinant CRAF kinase and its respective substrate, recombinant MEK1, were purchased from US Biological (Swampscott, Mass.). All assays were performed at 10 nM CRAF, 1 μM MEK1, 10 μM ATP, at 22° C. for 2 hours. […] IC50 values were obtained by determining the change in the ADP production (luminescent signal) at various inhibitor concentrations as compared to the control assay. Individual data sets were performed in duplicate and each IC50 was determined by the mean and standard deviation of three separate experiments.
(In general: ADP-Glo turns the ADP formed in a reaction into a luminescent signal.)

The next assay concerns the target human sEH (Homo sapiens (Human), UniProt P34913). Nature of the assay: Inhibitory activity against human sEH. In kind it is biochemical.
In a further assay the target is b-Raf (V600E) (Homo sapiens (Human), UniProt P15056, V600E). Nature of the assay: In vitro kinase inhibition assay (ADP-Glo), b-Raf (V600E). The assay is classed as biochemical. The protocol:
as §1, §2

For the next assay, the system named is HepG2 hepatoma cell line. Nature of the assay: MTT cell viability assay, HepG2. In kind it is cell-based. The note with it: for EC50: Homo sapiens, read-out: EC50 on cell viability, HepG2 (Liver). How it is done: (§3) Cell-based assays were performed using the described cell lines, grown in the appropriate Growth Mediums containing 10% fetal bovine serum and 1% penicillin-streptomycin. Cancer cells were plated at 15,000 cells/well in 96-well plates and allowed to attach overnight. […] Cell viability was determined after 72 hours incubation periods. To determine anti-proliferative effects of inhibitors, cellular proliferation was determined using the colorimetric MTT cell viability assay kit, as described by the manufacture (ATCC).
Background: Formazan colour is commonly taken as a measure of viable cells.

For assay [1], the system named is ACHN renal cell carcinoma cell line. Nature of the assay: MTT cell viability assay, ACHN. In kind it is cell-based. The note with it: Homo sapiens, 72 h, read-out: EC50 on cell viability, ACHN (Kidney). The protocol: as §3
A further assay concerns Huh-7 hepatoma cell line. Nature of the assay: MTT cell viability assay, Huh-7. In kind it is cell-based. As to conditions: Homo sapiens, read-out: EC50 on cell viability, Huh-7 (Liver). How it is done:
as §3

In assay [2] the test system is SKBR3 breast cancer cell line. Nature of the assay: MTT cell viability assay, SKBR3. In kind it is cell-based. As to conditions: Homo sapiens, SK-BR-3; MTT, 72 hours incubation; read-out: EC50 on cell viability, SKBR3 (Breast). The protocol:
Cell-based assays were performed using the described cell lines, grown in the appropriate Growth Mediums containing 10% fetal bovine serum and 1% penicillin-streptomycin. Cancer cells were plated at 15,000 cells/well in 96-well plates and allowed to attach overnight. Inhibitors were dissolved in DMSO and then diluted to concentrations ranging from 0.1-25 μM with a final DMSO concentration of 0.1%. Cell viability was determined after 72 hours incubation periods. To determine anti-proliferative effects of inhibitors, cellular proliferation was determined using the colorimetric MTT cell viability assay kit, as described by the manufacture (ATCC).

Where [3] appears, read: 10 nM enzyme, 1 μM MEK1, 10 μM ATP, 22° C., 2 hours, read-out: Raf-1 IC50.

human sEH, sequence (P34913 whole entry): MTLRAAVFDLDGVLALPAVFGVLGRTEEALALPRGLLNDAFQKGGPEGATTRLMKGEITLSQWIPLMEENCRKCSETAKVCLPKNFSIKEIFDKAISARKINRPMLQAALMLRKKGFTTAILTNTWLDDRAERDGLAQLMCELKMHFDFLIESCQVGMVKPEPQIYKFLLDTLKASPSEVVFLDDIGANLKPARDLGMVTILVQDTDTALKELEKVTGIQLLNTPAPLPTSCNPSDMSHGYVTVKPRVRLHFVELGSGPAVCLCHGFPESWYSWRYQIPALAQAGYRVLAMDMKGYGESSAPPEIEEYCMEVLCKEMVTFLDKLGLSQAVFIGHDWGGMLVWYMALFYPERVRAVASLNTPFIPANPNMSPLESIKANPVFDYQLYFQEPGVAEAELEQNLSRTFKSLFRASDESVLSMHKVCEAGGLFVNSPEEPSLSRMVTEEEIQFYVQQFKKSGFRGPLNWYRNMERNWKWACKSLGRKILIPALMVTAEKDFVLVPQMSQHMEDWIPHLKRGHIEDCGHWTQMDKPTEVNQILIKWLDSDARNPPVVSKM
Raf-1, sequence (P04049 whole entry): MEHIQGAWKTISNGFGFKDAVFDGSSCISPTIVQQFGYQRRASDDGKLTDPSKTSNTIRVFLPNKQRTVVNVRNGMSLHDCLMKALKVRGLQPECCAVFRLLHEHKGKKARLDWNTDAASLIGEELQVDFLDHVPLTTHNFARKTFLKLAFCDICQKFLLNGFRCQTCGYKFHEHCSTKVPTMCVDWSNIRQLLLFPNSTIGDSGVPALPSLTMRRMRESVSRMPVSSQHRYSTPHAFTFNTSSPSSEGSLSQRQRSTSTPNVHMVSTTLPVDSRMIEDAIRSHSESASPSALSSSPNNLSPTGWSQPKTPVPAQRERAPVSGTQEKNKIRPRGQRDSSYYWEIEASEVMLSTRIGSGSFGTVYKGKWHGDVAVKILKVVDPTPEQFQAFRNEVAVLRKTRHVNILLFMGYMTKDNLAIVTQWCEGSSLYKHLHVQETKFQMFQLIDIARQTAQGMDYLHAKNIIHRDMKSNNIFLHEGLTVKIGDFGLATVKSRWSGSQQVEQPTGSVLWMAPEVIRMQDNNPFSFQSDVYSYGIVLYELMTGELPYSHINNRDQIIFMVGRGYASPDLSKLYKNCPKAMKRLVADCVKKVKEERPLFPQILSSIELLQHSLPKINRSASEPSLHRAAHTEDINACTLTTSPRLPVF
b-Raf (V600E), sequence (P15056 whole entry V600E): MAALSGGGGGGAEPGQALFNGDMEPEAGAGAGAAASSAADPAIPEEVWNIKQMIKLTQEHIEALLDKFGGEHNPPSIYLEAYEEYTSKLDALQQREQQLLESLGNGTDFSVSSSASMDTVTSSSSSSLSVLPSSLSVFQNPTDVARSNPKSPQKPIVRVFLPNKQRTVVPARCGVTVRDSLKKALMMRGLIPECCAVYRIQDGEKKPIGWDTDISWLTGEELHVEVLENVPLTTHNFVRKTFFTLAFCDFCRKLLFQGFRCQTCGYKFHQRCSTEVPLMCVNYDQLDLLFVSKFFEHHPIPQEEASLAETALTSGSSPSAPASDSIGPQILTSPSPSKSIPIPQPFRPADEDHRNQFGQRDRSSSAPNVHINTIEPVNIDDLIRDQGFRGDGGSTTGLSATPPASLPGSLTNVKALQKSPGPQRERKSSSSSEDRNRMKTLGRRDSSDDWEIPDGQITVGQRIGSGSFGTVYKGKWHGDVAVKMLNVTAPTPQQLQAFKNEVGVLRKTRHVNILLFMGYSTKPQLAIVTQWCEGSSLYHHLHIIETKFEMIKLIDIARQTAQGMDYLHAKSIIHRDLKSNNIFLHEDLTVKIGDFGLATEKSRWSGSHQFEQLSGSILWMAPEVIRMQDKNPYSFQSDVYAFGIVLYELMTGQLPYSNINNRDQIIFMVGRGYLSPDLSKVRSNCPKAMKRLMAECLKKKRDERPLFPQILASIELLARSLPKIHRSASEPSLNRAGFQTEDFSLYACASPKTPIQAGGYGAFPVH

As to `CCN(CC)C(=O)c1cc(O[C@H]2CC[C@H](NC(=O)Nc3ccc(Cl)c(C(F)(F)F)c3)CC2)ccn1` [Compound 2574, trans-4-{4-[3-(4-Chloro-3-trifluoromethyl-phenyl)-ureido]-cyclohexyloxy}-pyridine-2-carboxylic acid diethylamide], the IC50 (as a rule, the concentration that inhibits the measured activity by half) at Raf-1 (setting [3]) was more than 10000 nM; at human sEH (read-out: Human sEH IC50), 0.5 nM.

As for `N#Cc1ccc(O[C@H]2CC[C@H](NC(=O)Nc3ccc(Cl)cc3)CC2)cc1` [Compound 2580, trans-1-(4-Chloro-phenyl)-3-[4-(4-cyano-phenoxy)-cyclohexyl]-urea], the IC50 at human sEH (read-out: Human sEH IC50) is 0.5 nM.

`N#Cc1ccc(O[C@H]2CC[C@H](NC(=O)Nc3ccc(Cl)c(C(F)(F)F)c3)CC2)cc1` [Compound 2182, trans-1-(4-Chloro-3-trifluoromethyl-phenyl)-3-[4-(4-cyano-phenoxy)-cyclohexyl]-urea]: at human sEH, the IC50 was determined as 14.6 nM.

Turning to `O=C(Nc1ccc(OC(F)(F)F)cc1)N[C@H]1CC[C@H](Oc2ccnc(C(=O)N3CCCC3)c2)CC1` [Compound 2578, trans-1-{4-[2-(Pyrrolidine-1-carbonyl)-pyridin-4-yloxy]-cyclohexyl}-3-(4-trifluoromethoxy-phenyl)-urea], the IC50 at human sEH (read-out: Human sEH IC50) was determined as 0.5 nM.

Turning to `O=C(Nc1ccc(Cl)c(C(F)(F)F)c1)N[C@H]1CC[C@H](Oc2ccc(C(=O)O)cc2)CC1` [Compound 2221, trans-4-{4-[3-(4-Chloro-3-trifluoromethyl-phenyl)-ureido]-cyclohexyloxy}-benzoic acid], the IC50 is more than 10000 nM against b-Raf (V600E) and 0.5 nM against human sEH.

Turning to `CC(C)(C)OC(=O)c1cc(O[C@H]2CC[C@@H](NC(=O)Nc3ccc(Cl)c(C(F)(F)F)c3)CC2)ccn1` [Compound 2318, cis-4-{4-[3-(4-Chloro-3-trifluoromethyl-phenyl)-ureido]-cyclohexyloxy}-pyridine-2-carboxylic acid tert-butyl ester], the inhibition (commonly the percentage by which the read-out fell short of the control) at 10 µM amounted to 51% against b-Raf (V600E) (at 10 μM concentration) and 54% on Raf-1 (read-out: Raf-1 % inhibition, at 10 μM concentration).

For `CNC(=O)c1ccc(O[C@H]2CC[C@@H](NC(=O)Nc3ccc(OC(F)(F)F)cc3)CC2)cc1` [Compound 2228, cis-N-Methyl-4-{4-[3-(4-trifluoromethoxy-phenyl)-ureido]-cyclohexyloxy}-benzamide], the IC50 against Raf-1 is more than 10000 nM.

Take `CNC(=O)c1ccc(O[C@H]2CC[C@H](NC(=O)Nc3ccc(Cl)c(C(F)(F)F)c3)CC2)cc1` [Compound 2253, trans-4-{4-[3-(4-Chloro-3-trifluoromethyl-phenyl)-ureido]-cyclohexyloxy}-N-methyl-benzamide]: the IC50 on human sEH (read-out: Human sEH IC50) was 0.5 nM.

With `O=C(Nc1ccc(OC(F)(F)F)cc1)N[C@H]1CC[C@H](Oc2ccc(C(=O)O)cc2)CC1` [Compound 1728, trans-4-{4-[3-(4-Trifluoromethoxy-phenyl)-ureido]-cyclohexyloxy}-benzoic acid], the “Effect on Hep G2 cell viability (dose dependence)” value with HepG2 hepatoma cell line (FIG. 2) and in the assay with HepG2 hepatoma cell line (FIG. 4) was “limited effect” in each case. The EC50 – broadly, the concentration at which the effect is half-maximal – stood at 15000 nM in the assay on HepG2 hepatoma cell line (HepG2, 72 h); 15000 nM in assay [1]; 20000 nM in the assay on Huh-7 hepatoma cell line (Huh-7, 72 h). Also, the “Effect on sunitinib's ability to kill cancer cells” value in the assay on HepG2 hepatoma cell line (administered in combination with sunitinib, Hep G2) is reported as “potentiates”.

For the compound `CNC(=O)c1cc(O[C@H]2CC[C@H](NC(=O)Nc3ccc(OC(F)(F)F)cc3)CC2)ccn1` [Compound 2575, trans-4-{4-[3-(4-Trifluoromethoxy-phenyl)-ureido]-cyclohexyloxy}-pyridine-2-carboxylic acid methylamide], the IC50 on Raf-1 (setting [3]) is more than 10000 nM; on human sEH (read-out: Human sEH IC50) it was 0.5 nM.

Consider `CNC(=O)c1ccc(O[C@H]2CC[C@H](NC(=O)Nc3ccc(Cl)c(C(F)(F)F)c3)CC2)cn1` [Compound 2316, trans-5-{4-[3-(4-Chloro-3-trifluoromethyl-phenyl)-ureido]-cyclohexyloxy}-pyridine-2-carboxylic acid methylamide], for which the IC50 at b-Raf (V600E) is 1500 nM; on Raf-1 (setting [3]), 175 ± 20 nM; on human sEH (read-out: Human sEH IC50) it was 0.5 nM.

`N#Cc1ccc(O[C@H]2CC[C@H](NC(=O)Nc3ccc(OC(F)(F)F)cc3)CC2)cc1` [Compound 2581, trans-1-[4-(4-Cyano-phenoxy)-cyclohexyl]-3-(4-trifluoromethoxy-phenyl)-urea]: the IC50 at human sEH (read-out: Human sEH IC50) was determined as 0.5 nM.

`CC(C)(C)OC(=O)c1ccc(O[C@H]2CC[C@H](NC(=O)Nc3ccc(Cl)c(C(F)(F)F)c3)CC2)cn1` [Compound 2315, trans-5-{4-[3-(4-Chloro-3-trifluoromethyl-phenyl)-ureido]-cyclohexyloxy}-pyridine-2-carboxylic acid tert-butyl ester]: the IC50 on Raf-1 (setting [3]) was more than 10000 nM; at human sEH (read-out: Human sEH IC50), 0.5 nM.

In the case of `O=C(Nc1ccc(Cl)cc1)N[C@H]1CC[C@H](Oc2ccc(C(=O)O)cc2)CC1` [Compound 2084, trans-4-{4-[3-(4-Chloro-phenyl)-ureido]-cyclohexyloxy}-benzoic acid], the concentration for half-maximal inhibition (IC50) on Raf-1 (setting [3]) is more than 10000 nM; at human sEH (read-out: Human sEH IC50), 5.5 nM.

Take `CC(C)(C)OC(=O)c1cc(O[C@H]2CC[C@H](NC(=O)Nc3ccc(Cl)c(C(F)(F)F)c3)CC2)ccn1` [Compound 2280, trans-4-{4-[3-(4-Chloro-3-trifluoromethyl-phenyl)-ureido]-cyclohexyloxy}-pyridine-2-carboxylic acid tert-butyl ester]: at b-Raf (V600E), the IC50 is more than 10000 nM.

Turning to `N#Cc1ccc(O[C@H]2CC[C@H](NC(=O)Nc3ccc(C(F)(F)F)cc3)CC2)cc1` [Compound 2579, trans-1-[4-(4-Cyano-phenoxy)-cyclohexyl]-3-(4-trifluoromethyl-phenyl)-urea], the IC50 at human sEH (read-out: Human sEH IC50) stood at 0.5 nM.

In the case of `CCOC(=O)c1ccc(O[C@H]2CC[C@@H](NC(=O)Nc3ccc(OC(F)(F)F)cc3)CC2)cc1` [Compound 1612, reference compound], at human sEH (read-out: Human sEH IC50), the IC50 was 3.4 nM.

`O=C(Nc1ccc(Cl)c(C(F)(F)F)c1)N[C@H]1CC[C@H](Oc2ccc(C(F)(F)F)cn2)CC1` [Compound 2288, trans-1-(4-Chloro-3-trifluoromethyl-phenyl)-3-[4-(5-trifluoromethyl-pyridin-2-yloxy)-cyclohexyl]-urea]: the IC50 was more than 10000 nM against b-Raf (V600E), more than 10000 nM on Raf-1 (setting [3]) and 9 nM on human sEH (read-out: Human sEH IC50).

`O=C(NC12CC3CC(CC(C3)C1)C2)N[C@H]1CC[C@H](Oc2ccc(C(=O)O)cc2)CC1` [Compound 1471, reference compound]: in assay [1], the EC50 was more than 25000 nM.

In the case of `CCN(CC)C(=O)c1cc(O[C@H]2CC[C@H](NC(=O)Nc3ccc(OC(F)(F)F)cc3)CC2)ccn1` [Compound 2577, trans-4-{4-[3-(4-Trifluoromethoxy-phenyl)-ureido]-cyclohexyloxy}-pyridine-2-carboxylic acid diethylamide], the IC50 at human sEH (read-out: Human sEH IC50) amounted to 0.5 nM.

Turning to `CNC(=O)c1cc(Oc2ccc(NC(=O)NC34CC5CC(CC(C5)C3)C4)cc2)ccn1` [Compound 2287, 4-[4-(3-Adamantan-1-yl-ureido)-phenoxy]-pyridine-2-carboxylic acid methylamide], the IC50 on b-Raf (V600E) was more than 10000 nM; at Raf-1 (setting [3]) it was more than 10000 nM; at human sEH (read-out: Human sEH IC50), 0.5 nM.

On to `O=C(Nc1ccc(C(F)(F)F)cc1)N[C@H]1CC[C@H](Oc2ccc(C(=O)O)cc2)CC1` [Compound 2372, trans-4-{4-[3-(4-Trifluoromethyl-phenyl)-ureido]-cyclohexyloxy}-benzoic acid], for which the values for the half-maximal inhibitory concentration (IC50) on Raf-1 (setting [3]) and at human sEH (read-out: Human sEH IC50) were more than 10000 nM and 0.9 nM, respectively.

Take `CNC(=O)c1cc(O[C@H]2CC[C@@H](NC(=O)Nc3ccc(Cl)c(C(F)(F)F)c3)CC2)ccn1` [Compound 2319, cis-4-{4-[3-(4-chloro-3-trifluoromethyl-phenyl)-ureido]-cyclohexyloxy}-pyridine-2-carboxylic acid methylamide]: the half-maximal effective concentration (EC50) in the assay on HepG2 hepatoma cell line (HepG2, MTT, 72 hours incubation) was found to be 7500 nM; in the assay on Huh-7 hepatoma cell line (Huh-7, MTT, 72 hours incubation), 8500 nM; in assay [2], 8000 nM. Besides, the IC50 on human sEH (read-out: Human sEH IC50) stood at 0.5 nM.
